# Earlier results as cited in US20170119704A1, “TREATMENT OF COGNITIVE IMPAIRMENT” (Ovid Therapeutics Inc., priority 2015, published 2017).
# Conditions: in vivo
smiles,measurement,value
"CN(C)CCO/N=C(/C=C/c1ccc(O)cc1)c1ccccc1F [Eplivanserin, (1Z,2E)-1-(2-fluorophenyl)-3-(4-hydroxyphenyl)-prop-2-en-1-one-O-(2-dimethylaminoethyl)-oxime]",absorption (well absorbed),> 70%
